# Experimental data as given in patent US6872850B2, “Small molecule inhibitors of secretion of proteins encoded by ARE-mRNAs” (Message Pharmaceuticals, priority 2001, dated 2005).
# “Also recorded” adds a separate entry of the source.
# What was measured:
# [1] = tested on: TNFα; assay: ELISA of TNFα secreted into the media after LPS; assay type: cell-based; conditions: for effect on amount of secreted TNFα (direct TNFα secretion assay), in words: after LPS stimulation
# Protocol: The ability of candidate compounds to reduce the amount of secreted TNFα was also directly tested using an ELISA assay. […] A standard ELISA analysis was used to measure the amount of TNFα secreted into the media (see, for example, Ausubel et al., supra). The effect of a candidate compound on TNFα secretion in this assay is reported in the following tables as a percentage of the amount of TNFα secreted by a control cell that was administered a DMSO vehicle control only.
# [2] = tested on: 3′ UTR of the TNFα gene; assay: cell-based luciferase reporter assay, 5B cell line (luciferase gene with entire 3′ UTR of the TNFα gene); parameters: species or system mouse; conditions: for Luciferase 5B (% of DMSO control): 1 h, then LPS, 5B cell line
# Protocol: The candidate compounds were tested in a high-throughput, cell-based luciferase reporter assay. For this assay, a commercially available mouse macrophage Raw 264.7 cell line was stably transfected with a construct containing the CMV promoter operably linked to the luciferase gene which was modified using standard molecular biology techniques to contain the entire 3′ UTR of the TNFα gene. This 3′ UTR is important for the stability and translation of TNFα in cells. To control for effects of candidate compounds that are not specific for TNFα, a control cell line, called “3B,” was generated by stably transfecting the 264.7 cell line with a commercially available construct containing the luciferase gene (without the addition of the heterologous 3′ UTR of the TNFα gene) under the regulation of the CMV promoter.
# […] Then, lipopolysaccharide (LPS) was added to stimulate TNFα secretion. Luciferase activity was measured by determining the luminescence intensity due to the reaction of lucifern, ATP, Mg^2+, and molecular O2 (see, for example, Ausubel et al., supra). The luciferase activity in a cell incubated with a candidate compound was reported as a percentage of the luciferase activity for the corresponding cell incubated with DMSO vehicle only.
# After correction for any effect caused by the administration of the DMSO only vehicle control, the effect of a candidate compound on luciferase activity in the 3B control cell line represents the global effect of the compound on any step required for expression or activity of luciferase protein, such as luciferase gene transcription, mRNA processing, mRNA stability, translation, protein stability, or enzymatic activity. […] In this case, the luciferase activity in the 5B cell line treated with the DMSO vehicle control is similar to the luciferase activity in the control 3B cell line treated with the candidate compound. Thus, the response of the 5B cell line (as a percent of the DMSO control) and the ratio of the luciferase activity in the 5B cell line (as a percent of the DMSO control) to the luciferase activity in the control 3B cell line (as a percent of the DMSO control) are similar. In desirable embodiments, the response of the 5B cell line and the 5B/3B ratio differ by less than 50, 40, 30, 20, 10, or 5%.
# [3] = 10 μM compound, ratio of 5B to control 3B cell line
Structure (SMILES),"TNFα Secretion (% of DMSO control) ([1]; 10 μM compound, 1 h, then LPS)",Luciferase 5B (% of DMSO control) ([2]; 10 μM compound),"Luciferase 5B/3B (% of DMSO control 5B)/(% of DMSO control 3B) [2, 3]",also measured
CC(C)CC(NC(=O)c1ccc(C(=NNC(=N)N)c2ccccc2)cc1)C(=O)N1CCN(C(=O)C(CCc2ccccc2)NC(=O)c2ccc(C(=NNC(=N)N)c3ccccc3)cc2)CC1 (mixture of isomers) [MES 10194],22 % of DMSO control,34 % of DMSO control,49 (% of DMSO control 5B)/(% of DMSO control 3B),
CC(C)CC(NC(=O)c1ccc(C(=NNC(=N)N)c2ccccc2)cc1)C(=O)N1CCN(C(=O)C(Cc2ccc3ccccc3c2)NC(=O)c2ccc(C(=NNC(=N)N)c3ccccc3)cc2)CC1 (mixture of isomers) [MES 10195],33 % of DMSO control,36 % of DMSO control,82 (% of DMSO control 5B)/(% of DMSO control 3B),
CC(C)CC(NC(=O)c1ccccc1)C(=O)N1CCN(C(=O)C(Cc2ccccc2)NC(=O)c2ccc(C(=NNC(=N)N)c3ccccc3)cc2)CC1 (mixture of isomers) [MES 10222],49 % of DMSO control,36 % of DMSO control,49 (% of DMSO control 5B)/(% of D,
CC(C)CC(NC(=O)c1ccc(C(=NNC(=N)N)c2ccccc2)cc1)C(=O)N1CCN(C(=O)C(Cc2ccccc2)NC(=O)c2ccccc2)CC1 (mixture of isomers) [MES 10231],49 % of DMSO control,34 % of DMSO control,33 (% of DMSO control 5B)/(% of D,
CC(C)CC(NC(=O)c1ccc(C(=NNC(=N)N)c2ccccc2)cc1)C(=O)N1CCN(C(=O)C(Cc2ccccc2)NC(=O)c2ccc([N+](=O)[O-])cc2)CC1 (mixture of isomers) [MES 10233],42 % of DMSO control,36 % of DMSO control,40 (% of DMSO control 5B)/(% of D,
CC(C)CC(NC(=O)c1ccc(C(=NNC(=N)N)c2ccccc2)cc1)C(=O)N1CCN(C(=O)C(Cc2ccc(F)cc2)NC(=O)c2ccc(C(=NNC(=N)N)c3ccccc3)cc2)CC1 (mixture of isomers) [MES 10236],34 % of DMSO control,18 % of DMSO control,25 (% of DMSO control 5B)/(% of DMSO control 3B),
COc1ccc(CC(NC(=O)c2ccc(C(=NNC(=N)N)c3ccccc3)cc2)C(=O)N2CCN(C(=O)C(CC(C)C)NC(=O)c3ccc(C(=NNC(=N)N)c4ccccc4)cc3)CC2)cc1 (mixture of isomers) [MES 10237],39 % of DMSO control,20 % of DMSO control,27 (% of DMSO control 5B)/(% of DMSO control 3B),
CC(C)CC(NC(=O)c1ccc(C(=NNC(=N)N)c2ccccc2)cc1)C(=O)N1CCN(C(=O)C(CC2CCCCC2)NC(=O)c2ccc(C(=NNC(=N)N)c3ccccc3)cc2)CC1 (mixture of isomers) [MES 10238],23 % of DMSO control,32 % of DMSO control,78 (% of DMSO control 5B)/(% of DMSO control 3B),
CC(=NNC(=N)N)c1cccc(C(=O)NC(CC(C)C)C(=O)N2CCN(C(=O)C(Cc3ccc(Cl)cc3)NC(=O)c3ccc(C(=NNC(=N)N)c4ccccc4)cc3)CC2)c1 (mixture of isomers) [MES 10258],42 % of DMSO control,43 % of DMSO control,39 (% of DMSO control 5B)/(% of DMSO control 3B),
CC(=NNC(=N)N)c1cccc(C(=O)NC(CC(C)C)C(=O)N2CCN(C(=O)C(Cc3ccc(-c4ccccc4)cc3)NC(=O)c3ccc(C(=NNC(=N)N)c4ccccc4)cc3)CC2)c1 (mixture of isomers) [MES 10259],36 % of DMSO control,22 % of DMSO control,38 (% of DMSO control 5B)/(% of DMSO control 3B),
CC(=NNC(=N)N)c1cccc(C(=O)NC(CC(C)C)C(=O)N2CCN(C(=O)C(Cc3ccc4ccccc4c3)NC(=O)c3ccc(C(=NNC(=N)N)c4ccccc4)cc3)CC2)c1 (mixture of isomers) [MES 10261],40 % of DMSO control,76 % of DMSO control,71 (% of DMSO control 5B)/(% of DMSO control 3B),
CC(=NN=C(N)N)c1cccc(C(=O)NC(Cc2ccccc2)C(=O)N2CCN(C(=O)C(CC(C)C)NC(=O)c3ccc(C(=NN=C(N)N)c4ccccc4)cc3)CC2)c1 (mixture of isomers) [MES 11405],55 % of DMSO control,39 % of DMSO control,49 (% of DMSO control 5B)/(% of D,"effect on amount of secreted TNFα (direct TNFα secretion assay), in words [1]: decreased the amount of secreted TNFα; effect on luciferase activity in the 5B cell line (luciferase assay), in words [2]: decrease TNFα secretion"
CC(=NNC(=N)N)c1ccc(C(=O)NC(Cc2ccccc2)C(=O)N2CCN(C(=O)C(CC(C)C)NC(=O)c3cccc(C(C)=NNC(=N)N)c3)CC2)cc1 (mixture of isomers) [MES 11452],88 % of DMSO control,13 % of DMSO control,50 (% of DMSO control 5B)/(% of D,"effect on amount of secreted TNFα (direct TNFα secretion assay), in words [1]: decreased the amount of secreted TNFα"
CC(C)CC(NC(=O)c1ccc(C(=NN=C(N)N)c2ccccc2)cc1)C(=O)NCCCNC(=O)C(Cc1ccccc1)NC(=O)c1ccc(C(=NN=C(N)N)c2ccccc2)cc1 (mixture of isomers) [MES 11561],41 % of DMSO control,24 % of DMSO control,26 (% of DMSO control 5B)/(% of D,"effect on amount of secreted TNFα (direct TNFα secretion assay), in words [1]: decreased the amount of secreted TNFα; effect on luciferase activity in the 5B cell line (luciferase assay), in words [2]: decrease TNFα secretion; also recorded: greatest inhibition"
CC(=NN=C(N)N)c1cccc(C(=O)NC(CC(C)C)C(=O)NCCCNC(=O)C(Cc2ccccc2)NC(=O)c2ccc(C(=NN=C(N)N)c3ccccc3)cc2)c1 (mixture of isomers) [MES 11562],50 % of DMSO control,44 % of DMSO control,38 (% of DMSO control 5B)/(% of D,"effect on amount of secreted TNFα (direct TNFα secretion assay), in words [1]: decreased the amount of secreted TNFα; effect on luciferase activity in the 5B cell line (luciferase assay), in words [2]: decrease TNFα secretion"
"C/C(=N\N=C(N)N)c1cccc(C(=O)NCCNC(=O)[C@H](Cc2ccccc2)NC(=O)c2ccc(/C(=N/N=C(N)N)c3ccccc3)cc2)c1.O=C(O)C(F)(F)F.O=C(O)C(F)(F)F [MES 10091, (E,E)-Bisguanylhydrazone of 1-[(S)-N-(4-benzoylbenzoyl)-2-amino-3-phenylpropanoyl]-4-(3-acetylbenzoyl)-1,4-diazabutane bis trifluoroacetate]",,,,TNFα Secretion (% of DMSO control) ([1]; 1 μM compound (Table 11)): 97 % of DM80 control; TNFα Secretion (% of DMSO control) ([1]; 3 μM compound (Table 11)): 41 % of DM80 control; TNFα Secretion (% of DMSO control) ([1]; 10 μM compound (Table 11)): 22 % of DM80 control; Luciferase 5B/3B (% of DMSO control 5B)/(% of DMSO control 3B) ([2]; 1 μM compound (Table 11)): 113 (% of DMSO control 5B)/(% of D; Luciferase 5B/3B (% of DMSO control 5B)/(% of DMSO control 3B) ([2]; 3 μM compound (Table 11)): 68 (% of DMSO control 5B)/(% of D; Luciferase 5B/3B (% of DMSO control 5B)/(% of DMSO control 3B) ([2]; 10 μM compound (Table 11)): 73 (% of DMSO control 5B)/(% of D
"C/C(=N\N=C(N)N)c1cccc(C(=O)NCCNC(=O)[C@H](Cc2ccccc2)NC(=O)c2ccc(/C(=N\N=C(N)N)c3ccccc3)cc2)c1.O=C(O)C(F)(F)F.O=C(O)C(F)(F)F [MES 10092, (1-Z,4-E)-Bisguanylhydrazone of 1-[(S)-N-(4-benzoylbenzoyl)-2-amino-3-phenylpropanoyl]-4-(3-acetylbenzoyl)-1,4-diazabutane bis trifluoroacetate]",,,,TNFα Secretion (% of DMSO control) ([1]; 1 μM compound (Table 11)): 108 % of DM80 control; TNFα Secretion (% of DMSO control) ([1]; 3 μM compound (Table 11)): 81 % of DM80 control; TNFα Secretion (% of DMSO control) ([1]; 10 μM compound (Table 11)): 107 % of DM80 control; Luciferase 5B/3B (% of DMSO control 5B)/(% of DMSO control 3B) ([2]; 1 μM compound (Table 11)): 100 (% of DMSO control 5B)/(% of D; Luciferase 5B/3B (% of DMSO control 5B)/(% of DMSO control 3B) ([2]; 3 μM compound (Table 11)): 78 (% of DMSO control 5B)/(% of D; Luciferase 5B/3B (% of DMSO control 5B)/(% of DMSO control 3B) ([2]; 10 μM compound (Table 11)): 69 (% of DMSO control 5B)/(% of D
